Test results from patent publication US8969573B2, “Compounds for the inhibition of cellular proliferation” (President and Fellows of Harvard College, priority 2010, dated 2015).
Where two headings read alike, the source gives them in different places.

Assays:
[1] = target: eIF4E (Homo sapiens, UniProt P06730); assay: NMR binding experiments (titration with protein)
Procedure: Experiments were carried out with representative compounds to provide an indication of the ability of the compounds of the present invention to bind to eIF4E and therefore act as inhibitors of the binding of eIF4E to eIF4G.

[2] = tested on: CRL2351 human breast cancer; assay: SRB assay (inhibition of cell proliferation); type: cell-based; settings: CRL2351 human breast cancer cells
Excerpt: (§1) A sulfur rhodamine B (SRB) assay was used to determine the extent of inhibition of cell proliferation as a measure of the anti-cancer activity of compounds of the present disclosure. The reagent SRB binds to cellular proteins and absorbs light proportionally to the cellular protein content, which is a surrogate marker for the number of cells. According to aspects of the present disclosure, the assay can be used to with any cancer cell line including breast cancer cell lines, prostate cancer cell lines, melanoma cell lines, lung cancer cell lines or any other cell lines of the cancers described herein.
(§2) The following protocol was used to determine the growth characteristics of certain cell lines CRL2351 human breast cancer and CRL2813 human melanoma from which cell lines having doubling times less than 48 hours were selected for growth inhibition experiments. […] The following materials were used in addition to the cancel cell lines: complete (5% fetal calf serum added) tissue culture media, 96-well tissue culture plates, Sulforhodamine B dye (SRB, 0.57% w/w), […] (TCA, 10%), acetic acid glacial (1%) and 10 mM Tris base. The cells were prepared and plated. Cancer cells were grown to 80% confluency in an incubator. The cells were trypsinized per standard protocol or as needed for each cell line. The trypsin was neutralized, cells dissociated and counted. Each cell line was plated at a density of 500, 1000 and 3000 cells per well (six wells each) in five separate plates. The cells were then returned to the incubator. One plate was then removed each day starting day one after plating. 100 μl of 10% TCA was then added and the cells were fixed at 4° C. until all the cells were fixed. […] The cell growth for vehicle treatment is considered to be 100%. The optical density was then measured and plotted for each starting cell number and cell line against time. The percent cell growth inhibition was calculated as 100 minus the % of control cell growth. The % of control cell growth=((mean OD sample−Mean OD day 0)/(mean OD vehicle−Mean OD day 0))*100.

[3] = tested on: CRL2813 human melanoma; assay: SRB assay (inhibition of cell proliferation); type: cell-based
Excerpt: as §1, §2

[4] = target: eIF4E/eIF4G interaction (Homo sapiens, UniProt P06730); assay: Fluorescent polarization assay; type: binding; settings: FITC eIF4G peptide and recombinant eIF4E, ratio to Z (4EGI-1 = 1)
Procedure: The difference between the two measurement yields net polarization which is considered full signal of the assay (100% control). […] The activity of compound at each concentration is determined by comparing the fluorescent polarization (FP) signal in the presence of compound to the control (no compound) value. The percent inhibition is =100-((FP compound/FP control)*100).

[5] = Homo sapiens, summary table, read-out: IC50 [μM} CRL2351
[6] = Homo sapiens, CRL2813, CRL2813 human melanoma cells, summary table, read-out: IC50 [μM} CRL2813
[7] = summary table, read-out: IC50 [μM} CRL2351
[8] = Homo sapiens, Tables 1, 4, 5, read-out: SRB-IC50 (μM) 2351
[9] = CRL2813 human melanoma cells, summary table, read-out: IC50 [μM} CRL2813
[10] = Homo sapiens, CRL2813, CRL2813 human melanoma cells, Tables 1, 4, 5, read-out: SRB-IC50 (μM) 2813

eIF4E, sequence (P06730 27-217 limits assumed): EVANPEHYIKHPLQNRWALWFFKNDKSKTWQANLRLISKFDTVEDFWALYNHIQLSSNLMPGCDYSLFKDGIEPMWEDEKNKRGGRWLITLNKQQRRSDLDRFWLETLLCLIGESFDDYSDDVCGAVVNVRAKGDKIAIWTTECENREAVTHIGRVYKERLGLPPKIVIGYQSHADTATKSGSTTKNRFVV
eIF4E/eIF4G interaction, sequence (P06730 whole entry): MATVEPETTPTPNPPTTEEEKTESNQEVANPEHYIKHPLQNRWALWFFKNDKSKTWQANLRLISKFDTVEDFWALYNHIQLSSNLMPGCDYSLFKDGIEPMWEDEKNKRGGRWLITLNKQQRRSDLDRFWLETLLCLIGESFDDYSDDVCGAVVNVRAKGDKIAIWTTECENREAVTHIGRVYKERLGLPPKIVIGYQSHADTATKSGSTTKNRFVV

IC50 [2, 5]	IC50 [3, 6]	Fp (ratio to Z) [4]	Compound	also measured
> 20 µM	13 ± 3.6 µM	2.3	COc1ccc(-c2nc(NN=C(Cc3ccccc3[N+](=O)[O-])C(=O)O)sc2-c2ccc(-n3cc(CO)nn3)cc2)cc1 [KY-383, 2-{[5-[4-(4-hydroxymethyl-[1,2,3]triazol-1-yl)-phenyl]-4-(4-methoxy-phenyl)-thiazol-2-yl]-hydrazono}-3-(2-nitro-phenyl)-propionic acid]	IC50 [1]: ~3 µM
> 20 µM	17 ± 1.29 µM	1.5	COc1ccc(-c2nc(NN=C(Cc3ccccc3[N+](=O)[O-])C(=O)O)sc2-c2ccc(-n3cc(CCCO)nn3)cc2)cc1 [KY-447]	
		0.91	[N-]=[N+]=NCCCOc1ccc(-c2csc(N/N=C(/Cc3ccccc3[N+](=O)[O-])C(=O)O)n2)cc1 [KH-167s]	IC50 [2, 7]: 2.7 µM; IC50 [2, 8]: 2.8 µM; IC50 ([3]; CRL2813 human melanoma cells, Tables 1, 4, 5, read-out: SRB-IC50 (μM) 2813): 11.9 µM; IC50 [3, 9]: 12 µM
> 20 µM	15 ± 1.12 µM	1.2	COc1ccc(-c2nc(NN=C(Cc3ccccc3[N+](=O)[O-])C(=O)O)sc2-c2ccc(-n3cc(-c4cccc(O)c4)nn3)cc2)cc1 [KY-441]	
5 µM	9 µM	0.80	[N-]=[N+]=NCCOc1ccc(-c2csc(N/N=C(/Cc3ccccc3[N+](=O)[O-])C(=O)O)n2)cc1 [KH-166]	IC50 [2, 8]: 5 µM; IC50 [3, 10]: 9 µM
1.2 µM	11 µM	0.82	[N-]=[N+]=NCCOc1cccc(-c2csc(N/N=C(/Cc3ccccc3[N+](=O)[O-])C(=O)O)n2)c1 [KH-174]	IC50 [2, 8]: 1.3 µM; IC50 [3, 10]: 11 µM
3 µM	3 µM	0.7	NC(=O)/C(Cc1ccccc1[N+](=O)[O-])=N/Nc1nc(-c2ccc(Cl)c(Cl)c2)cs1 [KY-725]	
17 µM	16 ± 1.8 µM	2.5	COc1ccc(-c2nc(NN=C(Cc3ccccc3[N+](=O)[O-])C(=O)O)sc2-c2ccc(-n3cc(-c4ccc(N)cc4)nn3)cc2)cc1 [KY-449]	

The next lines start with the molecule.

Compound	IC50 [2, 5]	IC50 [3, 6]	Fp (ratio to Z) [4]	also measured
O=C(O)C(Cc1ccc(O)cc1)=NNc1nc(-c2cccc([N+](=O)[O-])c2)cs1 [KY-A6]				IC50 [1]: ~5 µM
COCc1cn(-c2ccc(-c3sc(NN=C(Cc4ccccc4[N+](=O)[O-])C(=O)O)nc3-c3ccc(OC)cc3)cc2)nn1 [KY-443A16-19]	> 20 µM	14 ± 0.73 µM	1	
Br.CCN(CC)c1ccc(-c2csc(N/N=C(\Cc3ccccc3[N+](=O)[O-])C(=O)O)n2)cc1 [KY-615S]		12.5 µM	4	IC50 [2, 7]: > 20 µM
COc1cc(-c2nc(NN=C(Cc3ccccc3[N+](=O)[O-])C(=O)O)sc2-c2ccc(Cl)c(Cl)c2)cc(OC)c1OC [KY-369S]	0.6 ± 0.02 µM	2 ± 0.19 µM	0.75	
Cc1ccc(-c2nc(NN=C(Cc3ccccc3[N+](=O)[O-])C(=O)O)sc2-c2ccc(Cl)c(Cl)c2)cc1 [KY-365A22-B3]	3.2 µM	3.3 µM	0.85	
COc1ccc(-c2nc(N/N=C(/Cc3ccccc3[N+](=O)[O-])C(=O)O)sc2-c2cccc(-n3cc(CO)nn3)c2)cc1 [KY-467S]	> 20 µM	> 20 µM	0.85	
O=C(O)C(Cc1ccccc1[N+](=O)[O-])=NNc1nc(-c2cc(Br)cc(Br)c2O)cs1 [KH-102BII]	9 µM	> 20 µM	0.69	
O=C(O)/C(Cc1c(Br)cccc1[N+](=O)[O-])=N/Nc1nc(-c2ccc(Cl)c(Cl)c2)cs1 [RYF-339F]	< 0.54 µM	1 µM	2.0	
O=C(O)C(Cc1ccccc1[N+](=O)[O-])NNc1nc(-c2ccc(Cl)c(Cl)c2)cs1 (stereo not shown) [KY-720]				IC50 [1]: ~4 µM
O=C(O)[C@H](Cc1ccccc1[N+](=O)[O-])Nc1nc(-c2ccc(Cl)c(Cl)c2)cs1 [KY-549]				IC50 [1]: ~7 µM
COc1ccc(-c2nc(N/N=C(\Cc3ccccc3[N+](=O)[O-])C(=O)O)sc2-c2ccc(I)cc2)cc1 [KY-613S]	9.5 µM	2.7 µM	1.1	
COc1ccc(-c2nc(NN=C(Cc3ccccc3[N+](=O)[O-])C(=O)O)sc2-c2ccc(OC)cc2)cc1 [KY-323B]			0.6	IC50 [2, 7]: 20 ± 3.7 µM; IC50 [3, 9]: 7 ± 2.6 µM
O=C(O)/C(Cc1ccccc1[N+](=O)[O-])=N/Nc1nc(-c2ccc(OC(F)(F)F)cc2)cs1 [KY-627S]	> 20 µM	> 20 µM	0.65	
Cc1ccc(-c2nc(NN=C(Cc3ccccc3[N+](=O)[O-])C(=O)O)sc2-c2ccc(Cl)cc2)cc1 [KY-351PR]	2.5 µM	3 µM	1.1	
O=C(O)/C(=N/Nc1nc(-c2ccc(Cl)c(Cl)c2)cs1)c1cccc([N+](=O)[O-])c1 [KY-788-E, (E)-2-(2-(4-(3,4-dichlorophenyl)thiazol-2-yl)hydrazono)-2-(3-nitrophenyl)acetic acid]		7 µM	1.4	IC50 [2, 7]: 18 µM
COc1ccc(-c2sc(N/N=C(/Cc3ccccc3[N+](=O)[O-])C(=O)O)nc2-c2ccc(C3CCCCC3)cc2)cc1 [KY-612S]	11 µM		1.8	IC50 [3, 9]: 0.3 µM
CCOc1ccc(-c2nc(N/N=C(/Cc3ccccc3[N+](=O)[O-])C(=O)O)sc2-c2ccc(OC)cc2)cc1 [KY-576F]			1	IC50 [2, 7]: 2 µM; IC50 [3, 9]: 2 µM
CCCc1sc(N/N=C(/Cc2ccccc2[N+](=O)[O-])C(=O)O)nc1-c1ccc(OC)cc1 [KY-582S]	13.2 µM	11.6 µM	0.9	
COc1ccc(-c2sc(NN=C(Cc3ccccc3[N+](=O)[O-])C(=O)O)nc2-c2ccc(OC)c(OC)c2)cc1 [KY-343PR]	> 20 µM	> 20 µM	1	
